In assay [1] the target is T1, beta-catenin/TCF4 engagement (Homo sapiens, UniProt P35222).
T1 construct: expressed in transfected cells; host or cells: HEK293
T1 sequence (P35222 1-781): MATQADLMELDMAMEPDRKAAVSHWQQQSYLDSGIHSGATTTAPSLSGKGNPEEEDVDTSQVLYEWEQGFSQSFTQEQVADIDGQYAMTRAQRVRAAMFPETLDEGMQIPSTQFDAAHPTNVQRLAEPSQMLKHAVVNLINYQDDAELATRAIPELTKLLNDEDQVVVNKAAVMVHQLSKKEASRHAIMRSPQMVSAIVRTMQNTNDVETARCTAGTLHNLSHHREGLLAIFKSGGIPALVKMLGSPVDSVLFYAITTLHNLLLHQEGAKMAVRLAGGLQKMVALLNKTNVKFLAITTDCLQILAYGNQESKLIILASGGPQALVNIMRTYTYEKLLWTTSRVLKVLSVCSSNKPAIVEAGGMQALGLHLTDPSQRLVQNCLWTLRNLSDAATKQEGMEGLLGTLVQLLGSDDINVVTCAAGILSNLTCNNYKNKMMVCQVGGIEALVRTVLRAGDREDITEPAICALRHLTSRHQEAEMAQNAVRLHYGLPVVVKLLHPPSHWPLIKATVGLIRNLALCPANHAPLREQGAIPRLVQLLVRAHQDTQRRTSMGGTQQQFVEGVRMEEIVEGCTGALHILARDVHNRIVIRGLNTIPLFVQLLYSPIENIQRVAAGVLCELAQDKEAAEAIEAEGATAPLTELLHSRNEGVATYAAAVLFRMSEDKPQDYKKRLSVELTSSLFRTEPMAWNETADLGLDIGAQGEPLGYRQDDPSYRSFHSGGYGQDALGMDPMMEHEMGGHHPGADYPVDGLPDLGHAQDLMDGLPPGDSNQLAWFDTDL
Briefly: Nano-BRET target engagement assay (B-cat-Halo & TCF4-Luc in HEK293 cells). The assay is classed as cell-based. The following applies: absolute IC50; read-out: NanoBRET Abs IC50.

Assay [2] has as its target T2, full-length beta-Catenin (Uniprot ID P35222) (Homo sapiens, UniProt P35222).
T2 construct: 10 nM full-length beta-Catenin (Uniprot ID P35222)
T2 sequence (P35222 1-781): T1 sequence (P35222 1-781)
Briefly: Fluorescence polarization IC50 (beta-catenin / 5FAM-TCF4 10-53 competition). The assay is classed as binding. The following applies: fluorescence polarization; read-out: beta-Catenin FP IC50. Background: Fluorescence polarisation rises when a labelled molecule tumbles more slowly, as on binding a larger partner.

Consider 11 compounds from US20240116985A1, “STAPLED PEPTIDES AND METHODS THEREOF” (priority 2020, published 2024).

Take `CC(=O)N1CCC[C@]12CC=CCCCC1(CCCC=CCCCCCC[C@@](C)(C(=O)N[C@@H](Cc3ccccc3Cl)C(=O)N[C@@H](Cc3csc4ccccc34)C(=O)N[C@@H](CCC(N)=O)C(N)=O)NC(=O)[C@H](CC(N)=O)NC(=O)[C@H](Cc3ccccc3)NC(=O)[C@H](C)NC(=O)[C@H](C)NC(=O)[C@H](CC(=O)O)NC(=O)[C@H](CC(=O)O)NC1=O)NC(=O)[C@H](CC(C)(C)C)NC(=O)[C@H](CC(=O)O)NC2=O` (stereo partly drawn) [I-1394, Ac-PL3-Asp-Npg-B5-Asp-Asp-Ala-Ala-Phe-Asn-S8-2C1F-BztA-Gln-NH2]: the values for the IC50 in assay [1] and in assay [2] were 15900 nM and 9 nM, respectively.

Regarding `CC(=O)N1CCC[C@]12CC=CCCCC1(CCCC=CCCCCCC[C@@](C)(C(=O)N[C@@H](Cc3ccccc3Cl)C(=O)N[C@@H](Cc3csc4ccccc34)C(=O)N[C@@H](CCC(N)=O)C(N)=O)NC(=O)[C@H](CCO)NC(=O)[C@H](Cc3ccccc3)NC(=O)[C@H](C)NC(=O)[C@H](C)NC(=O)[C@H](CC(=O)O)NC(=O)[C@H](CC(=O)O)NC1=O)NC(=O)[C@H](CC(C)(C)C)NC(=O)[C@H](CC(=O)O)NC2=O` (stereo partly drawn) [I-1395, Ac-PL3-Asp-Npg-B5-Asp-Asp-Ala-Ala-Phe-Hse-S8-2C1F-BztA-Gln-NH2], the IC50 in assay [1] came to 15400 nM; in assay [2], 33 nM.

`CC(=O)N1CCC[C@]12CC=CCCCC1(CCCC=CCCCCCC[C@@](C)(C(=O)N[C@@H](Cc3ccccc3C(F)(F)F)C(=O)N[C@@H](Cc3csc4ccccc34)C(=O)N[C@@H](CCC(N)=O)C(N)=O)NC(=O)[C@H](CC(N)=O)NC(=O)[C@H](Cc3ccccc3)NC(=O)[C@H](C)NC(=O)[C@H](C)NC(=O)[C@H](CC(=O)O)NC(=O)[C@H](CC(=O)O)NC1=O)NC(=O)[C@H](CC(C)(C)C)NC(=O)[C@H](CC(=O)O)NC2=O` (stereo partly drawn) [I-1396, Ac-PL3-Asp-Npg-B5-Asp-Asp-Ala-Ala-Phe-Asn-S8-2F3MeF-BztA-Gln-NH2]: the concentration for half-maximal inhibition (IC50) in assay [1] was 15300 nM; in assay [2], 33 nM.

With `CC(=O)N1CCC[C@]12CC=CCCCC1(CCCC=CCCCCCC[C@@](C)(C(=O)N[C@@H](Cc3ccccc3C(F)(F)F)C(=O)N[C@@H](Cc3csc4ccccc34)C(=O)N[C@@H](CCC(N)=O)C(N)=O)NC(=O)[C@H](CCO)NC(=O)[C@H](Cc3ccccc3)NC(=O)[C@H](C)NC(=O)[C@H](C)NC(=O)[C@H](CC(=O)O)NC(=O)[C@H](CC(=O)O)NC1=O)NC(=O)[C@H](CC(C)(C)C)NC(=O)[C@H](CC(=O)O)NC2=O` (stereo partly drawn) [I-1397, Ac-PL3-Asp-Npg-B5-Asp-Asp-Ala-Ala-Phe-Hse-S8-2F3MeF-BztA-Gln-NH2], the results for the half-inhibitory concentration (IC50) in assay [1] and in assay [2] were 16400 nM and 48 nM, respectively.

As to `CC(=O)N1CCC[C@]12CC=CCCCC1(CCCC=CCCCOC(=O)N3CC[C@@](C(=O)N[C@@H](Cc4ccsc4)C(=O)N[C@@H](Cc4csc5ccccc45)C(=O)N[C@@H](CCC(N)=O)C(N)=O)(C3)NC(=O)[C@H](CC(C)C)NC(=O)[C@H](Cc3ccccc3)NC(=O)[C@H](C)NC(=O)[C@H](C)NC(=O)[C@H](CC(=O)O)NC(=O)[C@H](CC(=O)O)NC1=O)NC(=O)[C@H](CC(C)C)NC(=O)[C@H](CC(=O)O)NC2=O` (stereo partly drawn) [I-1399, Ac-PL3-Asp-Leu-B5-Asp-Asp-Ala-Ala-Phe-Leu-PyrS2-3Thi-BztA-Gln-NH2], the IC50 was found to be 17400 nM in assay [1] and 13 nM in assay [2].

With `CCCC[C@@H]1NC(=O)[C@H](CC(=O)O)NC(=O)[C@]2(CC=CCCCC3(CCCC=CCCCOC(=O)N4CC[C@@](C(=O)N[C@@H](Cc5ccsc5)C(=O)N[C@@H](Cc5csc6ccccc56)C(=O)N[C@@H](CCC(N)=O)C(N)=O)(C4)NC(=O)[C@H](CC(C)C)NC(=O)[C@H](Cc4ccccc4)NC(=O)[C@H](C)NC(=O)[C@H](C)NC(=O)[C@H](CC(=O)O)NC(=O)[C@H](CC(=O)O)NC3=O)NC1=O)CCCN2C(C)=O` (stereo partly drawn) [I-1400, Ac-PL3-Asp-nLeu-B5-Asp-Asp-Ala-Ala-Phe-Leu-PyrS2-3Thi-BztA-Gln-NH2], the concentration for half-maximal inhibition (IC50) in assay [1] was determined as 20300 nM; in assay [2], 5 nM.

Consider `CCCC[C@@H]1NC(=O)[C@H](CC(=O)O)NC(=O)[C@]2(CC=CCCCC3(CCCC=CCCCOC(=O)N4CC[C@@](C(=O)N[C@@H](Cc5ccsc5)C(=O)N[C@@H](Cc5csc6ccccc56)C(=O)N[C@@H](CCC(N)=O)C(N)=O)(C4)NC(=O)[C@H](CCCC)NC(=O)[C@H](Cc4ccccc4)NC(=O)[C@H](C)NC(=O)[C@H](C)NC(=O)[C@H](CC(=O)O)NC(=O)[C@H](CC(=O)O)NC3=O)NC1=O)CCCN2C(C)=O` (stereo partly drawn) [I-1401, Ac-PL3-Asp-nLeu-B5-Asp-Asp-Ala-Ala-Phe-nLeu-PyrS2-3Thi-BztA-Gln-NH2], for which the IC50 stood at 21400 nM in assay [1] and 5 nM in assay [2].

On to `CCCC[C@@H]1NC(=O)[C@H](CC(=O)O)NC(=O)[C@]2(CC=CCCCC3(CCCC=CCCCOC(=O)N4CC[C@@](C(=O)N[C@@H](Cc5ccccc5)C(=O)N[C@@H](Cc5csc6ccccc56)C(=O)N[C@@H](CCC(N)=O)C(N)=O)(C4)NC(=O)[C@H](CC(C)C)NC(=O)[C@H](Cc4ccccc4)NC(=O)[C@H](C)NC(=O)[C@H](C)NC(=O)[C@H](CC(=O)O)NC(=O)[C@H](CC(=O)O)NC3=O)NC1=O)CCCN2C(C)=O` (stereo partly drawn) [I-1403, Ac-PL3-Asp-nLeu-B5-Asp-Asp-Ala-Ala-Phe-Leu-PyrS2-Phe-BztA-Gln-NH2], for which the IC50 in assay [1] was determined as 29100 nM; in assay [2], 6 nM.

`CCCC[C@@H]1NC(=O)[C@H](Cc2ccccc2)NC(=O)[C@H](C)NC(=O)[C@H](C)NC(=O)[C@H](CC(=O)O)NC(=O)[C@H](CC(=O)O)NC(=O)C2(CCCC=CCCCOC(=O)N3CC[C@@](C(=O)N[C@@H](Cc4ccccc4)C(=O)N[C@@H](Cc4csc5ccccc45)C(=O)N[C@@H](CCC(N)=O)C(N)=O)(C3)NC1=O)CCCC=CC[C@]1(CCCN1C(C)=O)C(=O)N[C@@H](CC(=O)O)C(=O)N[C@@H](CC(C)C)C(=O)N2` (stereo partly drawn) [I-1404, Ac-PL3-Asp-Leu-B5-Asp-Asp-Ala-Ala-Phe-nLeu-PyrS2-Phe-BztA-Gln-NH2]: the values for the half-inhibitory concentration (IC50) in assay [1] and in assay [2] were 36800 nM and 113 nM, respectively.

With `CCCC[C@@H]1NC(=O)[C@H](CC(=O)O)NC(=O)[C@]2(CC=CCCCC3(CCCC=CCCCOC(=O)N4CC[C@@](C(=O)N[C@@H](Cc5ccccc5)C(=O)N[C@@H](Cc5csc6ccccc56)C(=O)N[C@@H](CCC(N)=O)C(N)=O)(C4)NC(=O)[C@H](CCCC)NC(=O)[C@H](Cc4ccccc4)NC(=O)[C@H](C)NC(=O)[C@H](C)NC(=O)[C@H](CC(=O)O)NC(=O)[C@H](CC(=O)O)NC3=O)NC1=O)CCCN2C(C)=O` (stereo partly drawn) [I-1405, Ac-PL3-Asp-nLeu-B5-Asp-Asp-Ala-Ala-Phe-nLeu-PyrS2-Phe-BztA-Gln-NH2], the half-maximal inhibitory concentration (IC50) in assay [1] worked out at 40100 nM; in assay [2] it was 9 nM.

On to `CC(=O)N1CCC[C@]12CC=CCCCC1(CCCC=CCCCOC(=O)N3CC[C@@](C(=O)N[C@@H](Cc4ccsc4)C(=O)N[C@@H](Cc4csc5ccccc45)C(=O)N[C@@H](CCC(N)=O)C(N)=O)(C3)NC(=O)[C@H](CC(C)C)NC(=O)[C@H](Cc3ccccc3)NC(=O)[C@H](C)NC(=O)[C@H](C)NC(=O)[C@H](Cc3cccc(C(=O)O)c3)NC(=O)[C@H](CC(=O)O)NC1=O)NC(=O)[C@H](CC(C)C)NC(=O)[C@H](CC(=O)O)NC2=O` (stereo partly drawn) [I-1406, Ac-PL3-Asp-Leu-B5-Asp-3COOHF-Ala-Ala-Phe-Leu-PyrS2-3Thi-BztA-Gln-NH2], for which the IC50 in assay [1] was 5000 nM; in assay [2] it was 6 nM.

Broadly, the IC50 is the concentration needed to halve the response being measured.
